Source: ChEMBL document CHEMBL4818999, “Pyrido[2, 3-d]pyrimidin-7(8H)-ones as new selective orally bioavailable Threonine Tyrosine Kinase (TTK) inhibitors” (Eur J Med Chem, 2021)

How the values were obtained:
[1] = Cmax in Sprague-Dawley rat at 25 mg/kg, po; assay type: ADME, organism-based; design: route oral, dose 25 mg/kg; conditions: in vivo
[2] = tested on: HCT-116; test: Induction of apoptosis in human HCT-116 cells assessed as early apoptotic cells at 1000 nM incubated for 48 hrs by annexin V and 7-AAD staining based flow cytometry analysis (reference value: 8.12 %); assay type: functional
[3] = target: Phosphatidylinositol 4,5-bisphosphate 3-kinase catalytic subunit delta isoform (Homo sapiens) (UniProt O00329); conditions: dose 100.0 nM
Description: Inhibition of human PIK3CD at 100 nM by scintillation counting based direct-filter Binding radiometric assay relative to control

[4] = target: Mitogen-activated protein kinase 10 (Homo sapiens) (UniProt P53779); conditions: dose 100.0 nM
Description: Inhibition of human full length JNK3 at 100 nM by direct-filter Binding radiometric assay relative to control

[5] = target: Maternal embryonic leucine zipper kinase (Homo sapiens) (UniProt Q14680); conditions: dose 100.0 nM
[6] = target: Death-associated protein kinase 1 (Homo sapiens) (UniProt P53355); conditions: dose 100.0 nM
[7] = Half life in Sprague-Dawley rat at 25 mg/kg, po; assay type: ADME, organism-based; conditions: in vivo
[8] = target: Mitogen-activated protein kinase 8 (Homo sapiens) (UniProt P45983); conditions: dose 100.0 nM
Description: Inhibition of human full length JNK-1 using ATF2 as substrate at 100 nM direct filter-binding radiometric kinase activity assay relative to control

[9] = tested on: HCT-116; test: Induction of apoptosis in human HCT-116 cells assessed as viable cells at 1000 nM incubated for 48 hrs by annexin V and 7-AAD staining based flow cytometry analysis (reference value: 82.09 %); assay type: functional; conditions: read-out: Activity
[10] = target: MAP/microtubule affinity-regulating kinase 3 (Homo sapiens, UniProt P27448); test: Binding affinity to wild-type human full length MARK3 (M1 to L729 residues) expressed in bacterial expression system by measuring active site-directed competition binding based Kinomescan method
[11] = tested on: HCT-116; test: Induction of apoptosis in human HCT-116 cells assessed as viable cells at 333.3 nM incubated for 48 hrs by annexin V and 7-AAD staining based flow cytometry analysis (reference value: 82.09 %); assay type: functional; conditions: read-out: Activity
[12] = target: Interleukin-1 receptor-associated kinase 1 (Homo sapiens, UniProt P51617); conditions: dose 100.0 nM
Description: Inhibition of human recombinant IRAK1 (198 to end) using myelin ba as substrate at 100 nM direct filter-binding radiometric kinase activity assay relative to control

[13] = Oral bioavailability in Sprague-Dawley rat at 25 mg/kg; assay type: ADME, organism-based; conditions: in vivo
[14] = tested on: HCT-116; test: Antitumor activity at human HCT-116 cells xenografted in CB17-SCID mouse assessed as tumor growth inhibition at 50 mg/kg, po administered daily, 2days on/ 4 days off and measured every 2 days for 16 days relative to control; assay type: functional; conditions: HCT-116, po, 384 h, time 16 day, read-out: TGI
[15] = target: T1, Dual specificity protein kinase TTK (Homo sapiens, UniProt P33981); test: Inhibition of recombinant full-length human TTK using MBP as substrate incubated for 40 mins in presence of [gamma33P]ATP by scintillation counting based radiometry assay relative to control
T1 sequence (P33981 whole entry): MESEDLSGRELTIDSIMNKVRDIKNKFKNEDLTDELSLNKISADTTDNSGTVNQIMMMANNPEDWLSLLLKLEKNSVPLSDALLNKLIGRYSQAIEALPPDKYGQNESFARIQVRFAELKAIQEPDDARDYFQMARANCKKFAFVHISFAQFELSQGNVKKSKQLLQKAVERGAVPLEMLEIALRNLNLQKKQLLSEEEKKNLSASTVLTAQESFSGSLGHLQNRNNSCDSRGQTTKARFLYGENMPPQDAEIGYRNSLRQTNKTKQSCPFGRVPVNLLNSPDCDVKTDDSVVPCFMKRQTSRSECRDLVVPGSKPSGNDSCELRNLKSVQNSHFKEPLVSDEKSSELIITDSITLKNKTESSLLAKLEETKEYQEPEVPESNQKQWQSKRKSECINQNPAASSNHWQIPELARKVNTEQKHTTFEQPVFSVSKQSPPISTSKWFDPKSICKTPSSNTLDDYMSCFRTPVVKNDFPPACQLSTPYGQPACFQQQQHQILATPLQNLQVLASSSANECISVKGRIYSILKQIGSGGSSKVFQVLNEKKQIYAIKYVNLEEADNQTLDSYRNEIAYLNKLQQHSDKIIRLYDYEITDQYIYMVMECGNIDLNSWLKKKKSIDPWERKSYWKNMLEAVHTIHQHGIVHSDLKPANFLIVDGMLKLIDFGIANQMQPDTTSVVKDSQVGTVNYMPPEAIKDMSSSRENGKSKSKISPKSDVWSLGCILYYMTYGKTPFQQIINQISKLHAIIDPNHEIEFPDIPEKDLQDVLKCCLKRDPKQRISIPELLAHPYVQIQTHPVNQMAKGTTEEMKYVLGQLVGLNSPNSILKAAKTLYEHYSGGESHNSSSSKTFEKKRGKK

[16] = Toxicity in CB17-SCID mouse xenografted with human HCT-116 cells xenografted assessed as body weight loss at 50 mg/kg, po administered once daily relative to control; assay type: organism-based; conditions: in vivo
[17] = tested on: HCT-116; test: Induction of apoptosis in human HCT-116 cells assessed as early apoptotic cells at 333.3 nM incubated for 48 hrs by annexin V and 7-AAD staining based flow cytometry analysis (reference value: 8.12 %); assay type: functional
[18] = target: Casein kinase II subunit alpha (Homo sapiens) (UniProt P68400); conditions: dose 100.0 nM
[19] = tested on: HCT-116; test: Induction of apoptosis in human HCT-116 cells assessed as late apoptotic cells at 1000 nM incubated for 48 hrs by annexin V and 7-AAD staining based flow cytometry analysis (reference value: 8.59 %); assay type: functional
[20] = species on record: Homo sapiens; conditions: dose 100.0 nM
Description: Inhibition of PIPK5 (unknown origin) at 100 nM direct filter-binding radiometric kinase activity assay relative to control

[21] = tested on: HCT-116; test: Induction of apoptosis in human HCT-116 cells assessed as late apoptotic cells at 111.1 nM incubated for 48 hrs by annexin V and 7-AAD staining based flow cytometry analysis (reference value: 8.59 %); assay type: functional
[22] = Clearance in Sprague-Dawley rat at 5 mg/kg, iv; assay type: ADME, organism-based; conditions: in vivo
[23] = target: Death-associated protein kinase 3 (Homo sapiens, UniProt O43293); test: Binding affinity to wild-type human partial length DAPK3 (M1 to A277 residues) expressed in bacterial expression system by measuring active site-directed competition binding based Kinomescan method
[24] = tested on: HCT-116; test: Antitumor activity at human HCT-116 cells xenografted in CB17-SCID mouse assessed as tumor growth inhibition at 50 mg/kg, po administered once daily for 16 days in combination with paclitaxel at 20 mg/kg, ip once weekly relative to control; assay type: functional; conditions: HCT-116, 384 h, time 16 day, read-out: TGI
[25] = Half life in Sprague-Dawley rat at 5 mg/kg, iv; assay type: ADME, organism-based; conditions: in vivo
[26] = tested on: HCT-116; test: Induction of apoptosis in human HCT-116 cells assessed as late apoptotic cells at 333.3 nM incubated for 48 hrs by annexin V and 7-AAD staining based flow cytometry analysis (reference value: 1.20 %); assay type: functional
[27] = target: Serine/threonine-protein kinase DCLK1 (Homo sapiens) (UniProt O15075); conditions: dose 100.0 nM
Description: Inhibition of human DCAMKL1 at 100 nM by direct-filter Binding radiometric assay relative to control

[28] = AUC (0 to infinity) in Sprague-Dawley rat at 25 mg/kg, po; assay type: ADME, organism-based; design: time infinity, route oral, dose 25 mg/kg; conditions: in vivo
[29] = target: Phosphatidylinositol 3-kinase C2 domain-containing subunit gamma (Homo sapiens) (UniProt O75747); conditions: dose 100.0 nM
Description: Inhibition of PIK3C2G (unknown origin) at 100 nM direct filter-binding radiometric kinase activity assay relative to control

Chain of Casein kinase II subunit alpha (Homo sapiens) (P68400 whole entry, looked up): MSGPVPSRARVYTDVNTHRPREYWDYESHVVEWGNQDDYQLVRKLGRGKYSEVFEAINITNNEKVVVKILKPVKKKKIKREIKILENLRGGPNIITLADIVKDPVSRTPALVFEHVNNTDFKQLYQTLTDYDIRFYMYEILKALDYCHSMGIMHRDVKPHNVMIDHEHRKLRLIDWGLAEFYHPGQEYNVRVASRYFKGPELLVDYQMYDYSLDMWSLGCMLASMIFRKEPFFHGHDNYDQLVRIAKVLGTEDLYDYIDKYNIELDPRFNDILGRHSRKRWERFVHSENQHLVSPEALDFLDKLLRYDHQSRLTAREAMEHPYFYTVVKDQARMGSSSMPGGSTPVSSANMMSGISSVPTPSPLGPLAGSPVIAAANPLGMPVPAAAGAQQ
Chain of Mitogen-activated protein kinase 10 (Homo sapiens) (P53779 whole entry): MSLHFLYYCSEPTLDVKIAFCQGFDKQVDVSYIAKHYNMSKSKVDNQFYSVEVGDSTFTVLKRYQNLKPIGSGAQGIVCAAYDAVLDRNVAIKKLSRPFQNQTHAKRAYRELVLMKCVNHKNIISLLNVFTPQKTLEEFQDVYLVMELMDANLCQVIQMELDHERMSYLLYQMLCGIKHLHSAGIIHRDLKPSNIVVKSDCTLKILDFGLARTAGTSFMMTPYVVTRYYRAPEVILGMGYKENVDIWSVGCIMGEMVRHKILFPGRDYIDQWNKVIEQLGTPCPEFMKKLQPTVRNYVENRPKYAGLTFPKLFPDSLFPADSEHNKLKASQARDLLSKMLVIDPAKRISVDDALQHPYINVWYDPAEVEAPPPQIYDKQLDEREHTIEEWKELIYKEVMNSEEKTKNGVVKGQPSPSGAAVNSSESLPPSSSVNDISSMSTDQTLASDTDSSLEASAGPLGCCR
Chain of Death-associated protein kinase 1 (Homo sapiens) (P53355 whole entry, looked up): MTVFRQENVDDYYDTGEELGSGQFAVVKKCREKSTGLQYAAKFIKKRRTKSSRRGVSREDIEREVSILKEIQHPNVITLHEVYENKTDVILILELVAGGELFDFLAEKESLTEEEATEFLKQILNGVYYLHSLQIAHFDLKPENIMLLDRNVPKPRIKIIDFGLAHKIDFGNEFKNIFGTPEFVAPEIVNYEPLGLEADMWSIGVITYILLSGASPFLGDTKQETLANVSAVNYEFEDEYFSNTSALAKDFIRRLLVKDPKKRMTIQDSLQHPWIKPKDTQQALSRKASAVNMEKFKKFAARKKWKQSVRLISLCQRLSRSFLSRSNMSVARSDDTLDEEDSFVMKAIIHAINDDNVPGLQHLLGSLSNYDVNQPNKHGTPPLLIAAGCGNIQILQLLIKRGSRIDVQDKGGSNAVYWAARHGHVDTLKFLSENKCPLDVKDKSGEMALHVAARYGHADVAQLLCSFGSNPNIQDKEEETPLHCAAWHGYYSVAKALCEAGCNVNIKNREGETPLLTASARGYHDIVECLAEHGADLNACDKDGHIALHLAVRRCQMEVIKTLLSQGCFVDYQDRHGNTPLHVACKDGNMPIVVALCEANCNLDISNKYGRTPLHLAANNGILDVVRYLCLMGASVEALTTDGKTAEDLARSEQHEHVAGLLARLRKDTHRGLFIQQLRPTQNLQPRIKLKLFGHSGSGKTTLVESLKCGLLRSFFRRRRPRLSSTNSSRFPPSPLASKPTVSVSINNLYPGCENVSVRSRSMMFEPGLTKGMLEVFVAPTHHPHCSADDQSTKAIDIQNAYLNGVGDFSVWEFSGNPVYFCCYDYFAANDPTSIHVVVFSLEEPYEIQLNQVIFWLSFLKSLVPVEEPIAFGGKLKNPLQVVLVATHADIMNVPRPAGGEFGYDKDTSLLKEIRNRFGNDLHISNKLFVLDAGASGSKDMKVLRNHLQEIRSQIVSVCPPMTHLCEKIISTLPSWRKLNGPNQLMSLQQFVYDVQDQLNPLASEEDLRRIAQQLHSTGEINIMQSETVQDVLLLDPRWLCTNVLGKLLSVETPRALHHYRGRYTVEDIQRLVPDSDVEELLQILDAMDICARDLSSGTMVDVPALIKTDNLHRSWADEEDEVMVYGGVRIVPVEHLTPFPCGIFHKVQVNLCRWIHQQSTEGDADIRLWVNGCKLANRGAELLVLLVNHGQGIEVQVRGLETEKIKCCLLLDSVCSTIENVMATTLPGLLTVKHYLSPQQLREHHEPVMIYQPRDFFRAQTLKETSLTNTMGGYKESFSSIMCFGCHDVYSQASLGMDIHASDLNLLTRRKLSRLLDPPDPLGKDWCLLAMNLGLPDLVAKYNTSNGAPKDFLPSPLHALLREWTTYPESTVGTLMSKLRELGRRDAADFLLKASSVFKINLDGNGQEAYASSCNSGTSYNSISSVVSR
Chain of Phosphatidylinositol 4,5-bisphosphate 3-kinase catalytic subunit delta isoform (Homo sapiens) (O00329 whole entry, canonical isoform): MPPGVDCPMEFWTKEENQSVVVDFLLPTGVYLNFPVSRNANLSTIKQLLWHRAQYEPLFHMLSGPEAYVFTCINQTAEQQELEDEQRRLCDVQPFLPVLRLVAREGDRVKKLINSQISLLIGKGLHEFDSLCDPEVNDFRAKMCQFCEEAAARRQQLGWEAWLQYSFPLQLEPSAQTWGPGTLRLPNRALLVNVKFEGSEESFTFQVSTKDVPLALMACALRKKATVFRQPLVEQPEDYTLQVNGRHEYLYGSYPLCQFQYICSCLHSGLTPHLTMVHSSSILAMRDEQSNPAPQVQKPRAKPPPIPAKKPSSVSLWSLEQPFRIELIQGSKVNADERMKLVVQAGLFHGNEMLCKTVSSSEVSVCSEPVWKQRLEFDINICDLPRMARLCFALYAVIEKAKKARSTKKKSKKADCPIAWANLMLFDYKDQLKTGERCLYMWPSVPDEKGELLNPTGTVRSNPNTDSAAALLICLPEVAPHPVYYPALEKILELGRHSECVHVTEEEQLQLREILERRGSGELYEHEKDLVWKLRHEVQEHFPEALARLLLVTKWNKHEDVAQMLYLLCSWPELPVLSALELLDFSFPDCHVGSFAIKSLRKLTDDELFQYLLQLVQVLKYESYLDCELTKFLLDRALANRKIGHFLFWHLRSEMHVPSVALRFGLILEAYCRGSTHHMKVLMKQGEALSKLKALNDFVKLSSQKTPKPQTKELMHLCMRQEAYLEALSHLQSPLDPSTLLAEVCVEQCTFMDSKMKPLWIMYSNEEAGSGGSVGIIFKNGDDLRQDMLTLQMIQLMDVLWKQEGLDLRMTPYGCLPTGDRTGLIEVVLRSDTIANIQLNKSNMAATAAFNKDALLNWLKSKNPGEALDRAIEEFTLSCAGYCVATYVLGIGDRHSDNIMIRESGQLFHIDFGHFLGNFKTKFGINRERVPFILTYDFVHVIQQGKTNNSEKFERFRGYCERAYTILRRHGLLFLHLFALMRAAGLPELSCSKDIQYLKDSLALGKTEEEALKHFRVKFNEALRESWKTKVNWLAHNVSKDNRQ
Chain of Maternal embryonic leucine zipper kinase (Homo sapiens) (Q14680 whole entry, looked up): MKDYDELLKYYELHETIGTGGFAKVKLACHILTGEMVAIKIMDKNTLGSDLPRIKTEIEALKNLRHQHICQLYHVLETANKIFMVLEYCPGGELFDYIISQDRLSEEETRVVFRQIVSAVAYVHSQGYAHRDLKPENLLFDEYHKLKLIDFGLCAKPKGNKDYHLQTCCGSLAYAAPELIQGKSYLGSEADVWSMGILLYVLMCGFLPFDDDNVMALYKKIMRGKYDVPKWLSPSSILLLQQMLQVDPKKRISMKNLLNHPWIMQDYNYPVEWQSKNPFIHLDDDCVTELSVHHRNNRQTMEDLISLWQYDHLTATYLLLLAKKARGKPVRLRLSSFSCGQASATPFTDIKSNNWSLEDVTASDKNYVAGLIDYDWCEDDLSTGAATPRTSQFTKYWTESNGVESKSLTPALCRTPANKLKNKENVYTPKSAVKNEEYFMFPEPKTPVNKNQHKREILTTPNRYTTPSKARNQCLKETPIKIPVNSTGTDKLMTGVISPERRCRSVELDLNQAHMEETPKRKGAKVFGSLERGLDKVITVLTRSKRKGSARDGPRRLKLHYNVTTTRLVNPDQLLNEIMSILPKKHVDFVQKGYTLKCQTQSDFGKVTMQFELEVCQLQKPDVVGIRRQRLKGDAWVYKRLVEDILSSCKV
Chain of Serine/threonine-protein kinase DCLK1 (Homo sapiens) (O15075 whole entry): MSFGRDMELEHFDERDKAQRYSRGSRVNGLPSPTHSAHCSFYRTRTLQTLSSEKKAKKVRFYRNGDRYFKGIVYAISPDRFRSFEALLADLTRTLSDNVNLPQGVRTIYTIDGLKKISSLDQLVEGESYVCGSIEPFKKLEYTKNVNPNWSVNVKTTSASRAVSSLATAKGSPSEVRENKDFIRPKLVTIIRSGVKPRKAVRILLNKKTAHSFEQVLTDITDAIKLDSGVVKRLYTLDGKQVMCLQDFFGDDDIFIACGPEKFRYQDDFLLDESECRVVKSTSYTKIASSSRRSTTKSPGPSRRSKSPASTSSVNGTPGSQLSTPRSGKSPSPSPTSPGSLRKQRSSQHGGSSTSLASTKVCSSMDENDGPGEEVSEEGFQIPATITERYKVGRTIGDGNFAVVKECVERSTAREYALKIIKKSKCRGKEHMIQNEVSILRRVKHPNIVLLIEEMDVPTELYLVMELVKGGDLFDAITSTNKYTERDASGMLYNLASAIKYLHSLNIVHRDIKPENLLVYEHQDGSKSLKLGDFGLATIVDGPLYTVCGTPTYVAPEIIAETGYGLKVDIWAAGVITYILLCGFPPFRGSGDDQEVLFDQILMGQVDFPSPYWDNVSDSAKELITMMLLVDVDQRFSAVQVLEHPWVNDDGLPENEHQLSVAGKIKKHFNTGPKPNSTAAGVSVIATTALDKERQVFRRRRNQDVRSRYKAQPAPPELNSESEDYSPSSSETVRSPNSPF

Cmax [1]: 1230 ng/mL
inhibition [3]: 100%
inhibition [4]: 87%
inhibition [5]: 77%
half-life [7]: 6.01 h
inhibition [8]: 75%
Kd [10]: 11 nM
inhibition [12]: 91.8%
bioavailability [13]: 45.2%
IC50 [15]: 23 nM
inhibition [18]: 69%
inhibition [20]: 77%
clearance [22]: 15.8 mL/min/kg
half-life [25]: 3.58 h
inhibition [27]: 80%
AUC(0-inf) [28]: 13000 ng·h/mL
inhibition [29]: 94.4%
SMILES: COc1cc(N2CCN(C)CC2)ccc1Nc1ncc2c(C)cc(=O)n([C@H]3CC[C@@H](NC(=O)C4CCCCC4)CC3)c2n1
Activity [2]: 18.81%
inhibition [6]: 85%
viability at 1 µM [9]: 56.6%
viability at 0.3333 µM [11]: 70.7%
inhibition in vivo at 50 mg/kg [14]: 29%
Activity [16]: < 15%
Activity [17]: 13.5%
Activity [19]: 21.18%
Activity [21]: 5.3%
Kd [23]: 13 nM
inhibition in vivo at 50 mg/kg [24]: 78%
Activity [26]: 2.04%
